Measurements reported in patent EP4480494A1, “COMPOSITION FOR USE IN TREATMENT OF CANCER, INFLAMMATORY DISEASES, OR OBESITY, AND USE THEREOF” (National University Corporation Tokyo Medical and Dental …, priority 2022, dated 2023).

Experiments:
ZCCHC24 [1] = assay: Compound screening using HiBiT tag knock-in cells (ZCCHC24 expression reporter); type: cell-based, human; conditions: LOPAC compounds at 1 µM for 24 hours; HiBiT tag-inserted MDAMB231 reporter cells
Protocol: HiBiT tagged-MDAMB231 cells with were produced using the procedure below. First, crRNA (*14 (SEQ ID NO: 14) in Table 1) (IDT) was resuspended in the Nuclease-Free Duplex buffer (IDT) to a final concentration of 100 µM, and incubated at 95°C for 5 minutes together with the same amount of tracrRNA (IDT). The oligo complex was then slowly cooled down to room temperature and incubated with ALT-R Cas9 Nuclease V3 (61 µM) (Integrated DNA Technologies, IA, USA) for 20 minutes at room temperature to form the Cas9 complex. Next, a single-stranded DNA oligo (*15 (SEQ ID NO: 15) in Table 1) (comprising the HiBiT sequence and a sequence complementary to the sequence of the C-terminal region of ZCCHC24) and Cas9 complex were co-transfected into MDAMB231 cells by an electroporation method using the NEPA21 super electroporator ([…]). After single cell cloning, cells inserted with the HiBiT tag were collected.
The compound screening procedure is as follows. HiBiT tag-inserted cells were plated at 1 × 10^4 cells in a 96-well plate, cultured for 24 hours, and then reacted with a low molecular compound library (LOPAC; Sigma Aldrich) at 1 µM (final concentration) for 24 hours. After the culture medium was discarded, cells were incubated with 12.5 µL PBS, 12.5 µL lysis buffer (Promega), 0.5 µL substrate (Promega), and 0.25 µL LgBiT (Promega) for 10 minutes at room temperature in the dark. The luminescence intensity was measured using ARVO X3 (Perkin Elmer).
As mentioned above, ZCCHC24 is strongly expressed in cancer stem cell-like cells, and maintains the expression of genes important for maintaining cancer stemness by directly binding to the mRNA of these genes. Therefore, in order to clarify the expression induction mechanism of ZCCHC24, labeled reporter cells were created by inserting a HiBiT tag into the C terminus of ZCCHC24, 1280 types of compounds in LOPAC (Sigma Aldrich) were administered to these reporter cells at a concentration of 1 µM for 24 hours, and compound screening was performed (Figure 17A). […]

MDAMB231 cells = type: cell-based, human; conditions: 100 nM JQ1, 1 µM PD407824 or both, 24 hours, CD44/NRP1 staining
Protocol: 2 × 10^5 MDAMB231 cells were seeded in a 6-well plate. […] Twenty-four hours later, cells were collected, stained with CD44-PE (IM7, Biolegend) and NRP1-APC (FAB3870A, R&D), and subjected to FACS analysis using FACS Calibur (BD).

ZEB1 = assay: qPCR analysis on JQ1-treated MDAMB231; type: cell-based, human; conditions: MDAMB231, 100 nM JQ1, 24 hours
MDAMB231 = assay: cells; type: cell-based; conditions: Homo sapiens, MDA-MB-231; MDAMB231, 48 hours, Cell Titer Glo; read-out: IC50 for maximal cell survival inhibition
Protocol: 2 × 10^3 HiBiT tag-inserted cells were seeded in a 96-well plate. […] After 48 hours, 20 µL of Cell Titer Glo (Promega) was added. After 30 minutes of reaction at 37°C, the […] was measured using ARVO X3 (Perkin Elmer).

ZCCHC24 [2] = assay: cells; type: cell-based; conditions: Homo sapiens; HiBiT tag-inserted cells, 24 hours; read-out: EC50 concentration for the maximal increase in the ZCCHC24 expression
Protocol: 1 × 10^4 HiBiT tag-inserted cells were seeded in a 96-well plate. […] After 24 hours, the medium was discarded, and 12.5 µL PBS, 12.5 µL Lytic Buffer from the HiBiT kit (Promega), 0.5 µL substrate, and 0.25 µL LgBiT were added. After 10 minutes of reaction at room temperature, luminescence was measured using ARVO X3 (Perkin Elmer).

CC(=O)[C@]1(O)Cc2c(O)c3c(c(O)c2[C@@H](O[C@H]2C[C@H](N)[C@H](O)[C@H](C)O2)C1)C(=O)c1ccccc1C3=O [idarubicin]
Z score (ZCCHC24 expression) (ZCCHC24 [1]): up-regulators (compounds with Z score > 3.0 above were defined as up-regulators)

Cc1sc2c(c1C)C(c1ccc(Cl)cc1)=NC(CC(=O)OC(C)(C)C)c1nnc(C)n1-2 (stereo not shown) [JQ1]
cancer stem cell-like population (MDAMB231 cells): no decrease
expression of ZEB1 (ZEB1): dramatically increased
IC50 (MDAMB231): ~100 nM
EC50 (ZCCHC24 [2]): ~50 nM

COc1cc2c[n+](C)c3c4cc5c(cc4ccc3c2cc1OC)OCO5 [nitidine]
Z score (ZCCHC24 expression) (ZCCHC24 [1]): up-regulators (compounds with Z score > 3.0 above were defined as up-regulators)

CC[C@@]1(O)C(=O)OCc2c1cc1n(c2=O)Cc2cc3ccccc3nc2-1 [camptothecin]
Z score (ZCCHC24 expression) (ZCCHC24 [1]): up-regulators (compounds with Z score > 3.0 above were defined as up-regulators)
